Data from patent US9028845B2, “Chimeric immunomodulatory compounds and methods of using the same-IV” (Dynavax Technologies Corporation, priority 2001, dated 2015).
Strand notation (5' to 3'): a small letter for the sugar, then the base; units joined by * are phosphorothioate-linked, units joined directly phosphodiester-linked; [ ] holds rarer units or linkages, { } end groups; capitals alone tell only the bases. d = 2'-deoxy (DNA)

Tested on: human PBMCs
Test: Human PBMC cytokine response assay (IFN-γ and IFN-α in cell-free medium by ELISA), with or without cPLGA;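 for IFN-α (pg/ml) mean: 20 µg/mL compound for 24 hours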;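 for IFN-γ (pg/ml) mean: 20 µg/mL compound for 24 hours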
Format: cell-based
[1] = Table 24, mean of donors 28234-28237
[2] = Table 25, mean of donors 28250-28253
[3] = donor 28066, 20 ug/ml, 24 h, + PLGA = premixed with 100 μg/ml cPLGA
[4] = donor 28067, 20 ug/ml, 24 h, + PLGA = premixed with 100 μg/ml cPLGA
[5] = donor 28068, 20 ug/ml, 24 h, + PLGA = premixed with 100 μg/ml cPLGA
[6] = mean of Donors 1-2, 20 μg/ml, 24 h
[7] = mean of Donors 3-4, 20 μg/ml, 24 h
[8] = mean of Donors 5-6, 20 μg/ml (mixtures: 20 μg/ml total), 24 h
[9] = mean of Donors 7-8, 20 μg/ml, 24 h
[10] = mean of Donors 9-12, 20 μg/ml, 24 h
[11] = mean of donors 110, 112, 119, 120, Table 14
[12] = mean of donors 28057-28060, Table 16
[13] = mean of donors 28065-28068, 20 ug/ml, 24 h, + PLGA = premixed with 100 μg/ml cPLGA
[14] = mean of donors 28185-28188, Table 15
[15] = mean of donors 28218-28221, 20 μg/ml, 24 h

## 5′-TGACTGTGAACCTTAGAGATGA-3′ (SEQ ID NO: 3) (dT*dG*dA*dC*dT*dG*dT*dG*dA*dA*dC*dC*dT*dT*dA*dG*dA*dG*dA*dT*dG*dA) [Compound P-7, negative control, reference compound]
Table 11, mean of donors
  IFN-γ mean: 34 pg/mL
Table 24, donor 28234
  IFN-α: 62 pg/mL
  IFN-γ: 13 pg/mL
Table 24, donor 28235
  IFN-α: 16 pg/mL
  IFN-γ: 4 pg/mL
Table 24, donor 28236
  IFN-α: 16 pg/mL
  IFN-γ: 7 pg/mL
Table 24, donor 28237
  IFN-α: 16 pg/mL
  IFN-γ: 4 pg/mL
[1]
  IFN-α mean: 28 pg/mL
  IFN-γ mean: 7 pg/mL
Table 25, donor 28250
  IFN-a: 16 pg/mL
Table 25, donor 28250, polynucleotides/spacers at amounts equivalent to the CIC, spacers alone 9 uM
  IFN-g: 104 pg/mL
Table 25, donor 28251
  IFN-a: 16 pg/mL
  IFN-g: 1 pg/mL
Table 25, donor 28252
  IFN-a: 16 pg/mL
  IFN-g: 39 pg/mL
Table 25, donor 28253
  IFN-a: 16 pg/mL
  IFN-g: 1 pg/mL
[2]
  IFN-a mean: 16 pg/mL
  IFN-g mean: 36 pg/mL
Donor 110, Table 14
  IFN-α: 2 pg/mL
  IFN-γ: 124 pg/mL
Donor 112, Table 14
  IFN-α: 32 pg/mL
  IFN-γ: 24 pg/mL
Donor 119, Table 14
  IFN-α: 474 pg/mL
  IFN-γ: 16 pg/mL
Donor 120, Table 14
  IFN-α: 2 pg/mL
  IFN-γ: 40 pg/mL
Donor 28057, Table 16
  IFN-α: 0 pg/mL
  IFN-γ: 1 pg/mL
Donor 28058, Table 16
  IFN-α: 0 pg/mL
  IFN-γ: 2 pg/mL
Donor 28059, Table 16
  IFN-α: 0 pg/mL
  IFN-γ: 3 pg/mL
Donor 28060, Table 16
  IFN-α: 0 pg/mL
  IFN-γ: 4 pg/mL
Donor 28065 (high background), 20 ug/ml, 24 h, + PLGA = premixed with 100 μg/ml cPLGA, 1000 = outside assay limits
  IFN-γ (pg/ml) 28065: 397 pg/mL
Donor 28065, 20 ug/ml, 24 h, + PLGA = premixed with 100 μg/ml cPLGA
  IFN-α (pg/ml) 28065: 0 pg/mL
[3]
  IFN-α (pg/ml) 28066: 8 pg/mL
  IFN-γ (pg/ml) 28066: 1 pg/mL
[4]
  IFN-α (pg/ml) 28067: 0 pg/mL
  IFN-γ (pg/ml) 28067: 8 pg/mL
[5]
  IFN-α (pg/ml) 28068: 3 pg/mL
  IFN-γ (pg/ml) 28068: 15 pg/mL
Donor 28185, Table 15
  IFN-a: 4 pg/mL
  IFN-g: 0 pg/mL
Donor 28186, Table 15
  IFN-a: 25 pg/mL
  IFN-g: 4 pg/mL
Donor 28187, Table 15
  IFN-a: 5 pg/mL
  IFN-g: 19 pg/mL
Donor 28188, Table 15
  IFN-a: 31 pg/mL
  IFN-g: 2 pg/mL
Donor 28218, 20 μg/ml, 24 h
  IFN-a (pg/ml) 28218: 32 pg/mL
  IFN-g (pg/ml) 28218: 5 pg/mL
Donor 28219, 20 μg/ml, 24 h
  IFN-a (pg/ml) 28219: 32 pg/mL
  IFN-g (pg/ml) 28219: 5 pg/mL
Donor 28220, 20 μg/ml, 24 h
  IFN-a (pg/ml) 28220: 32 pg/mL
  IFN-g (pg/ml) 28220: 5 pg/mL
Donor 28221, 20 μg/ml, 24 h
  IFN-a (pg/ml) 28221: 32 pg/mL
  IFN-g (pg/ml) 28221: 5 pg/mL
[6]
  IFN-α (pg/ml) mean: 0 pg/mL
  IFN-γ (pg/ml) mean: 231 pg/mL
[7]
  IFN-α (pg/ml) mean: 15 pg/mL
  IFN-γ (pg/ml) mean: 5 pg/mL
[8]
  IFN-α (pg/ml) mean: 57 pg/mL
  IFN-γ (pg/ml) mean: 37 pg/mL
[9]
  IFN-α (pg/ml) mean: 0 pg/mL
  IFN-γ (pg/ml) mean: 2 pg/mL
[10]
  IFN-α mean: 2
  IFN-γ mean: 3
[11]
  IFN-α (pg/ml) mean: 128 pg/mL
  IFN-γ (pg/ml) mean: 51 pg/mL
[12]
  IFN-α (pg/ml) mean: 0 pg/mL
  IFN-γ (pg/ml) mean: 2 pg/mL
[13]
  IFN-α (pg/ml) mean: 3 pg/mL
  IFN-γ (pg/ml) mean: 105 pg/mL
[14]
  IFN-a (pg/ml) mean: 16 pg/mL
  IFN-g (pg/ml) mean: 6 pg/mL
[15]
  IFN-a (pg/ml) mean: 32 pg/mL
  IFN-g (pg/ml) mean: 5 pg/mL
Mean ×2, Table 15
  IFN-a (pg/ml) ×2: 32 pg/mL
Mean ×4, Table 15
  IFN-g (pg/ml) ×4: 25 pg/mL
Used alone (no cPLGA)
  immunomodulatory activity (IFN-γ / IFN-α secretion), in words: no activity
